# Reference: US12319681B2, “Tripartite androgen receptor eliminators, methods and uses thereof” (SPG Therapeutics, Inc., priority 2017, dated 2025)
# Legend:
# androgen receptor (AR) [1] = biological target: T1, androgen receptor (AR) (Homo sapiens, UniProt P10275); assay: Keratinocyte AR protein level ELISA (Example 10); assay type: cell-based; conditions: 24 h, read-out: AR Reduction
# T1 construct: human keratinocytes transfected with an AR luciferase reporter gene; endogenous in cells; host or cells: normal human adult primary epidermal keratinocytes (ATCC PCS-200-011)
# T1 sequence (P10275 1-920): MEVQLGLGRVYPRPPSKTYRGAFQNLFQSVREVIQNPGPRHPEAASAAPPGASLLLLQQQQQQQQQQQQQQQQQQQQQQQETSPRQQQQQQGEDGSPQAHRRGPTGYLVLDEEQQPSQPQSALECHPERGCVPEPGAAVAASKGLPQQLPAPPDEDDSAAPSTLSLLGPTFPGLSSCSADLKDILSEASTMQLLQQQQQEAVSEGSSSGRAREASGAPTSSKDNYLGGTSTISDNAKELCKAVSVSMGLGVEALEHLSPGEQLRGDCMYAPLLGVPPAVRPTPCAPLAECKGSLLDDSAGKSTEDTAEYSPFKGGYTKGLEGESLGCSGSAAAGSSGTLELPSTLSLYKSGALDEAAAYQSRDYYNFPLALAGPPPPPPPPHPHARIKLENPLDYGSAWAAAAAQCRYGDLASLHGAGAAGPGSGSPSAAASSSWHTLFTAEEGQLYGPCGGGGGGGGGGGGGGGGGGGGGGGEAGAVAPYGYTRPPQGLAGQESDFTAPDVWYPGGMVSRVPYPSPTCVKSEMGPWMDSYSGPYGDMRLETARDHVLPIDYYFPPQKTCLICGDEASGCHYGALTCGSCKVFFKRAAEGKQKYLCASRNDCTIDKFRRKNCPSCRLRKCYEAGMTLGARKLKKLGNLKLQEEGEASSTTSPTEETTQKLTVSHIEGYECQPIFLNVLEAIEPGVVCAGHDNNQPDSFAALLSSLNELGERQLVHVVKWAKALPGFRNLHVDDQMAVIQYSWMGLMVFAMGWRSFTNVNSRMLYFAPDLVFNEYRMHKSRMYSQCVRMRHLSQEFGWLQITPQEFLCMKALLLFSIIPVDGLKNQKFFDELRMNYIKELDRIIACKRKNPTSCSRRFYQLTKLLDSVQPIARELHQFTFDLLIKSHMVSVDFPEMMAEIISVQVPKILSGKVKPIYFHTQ
# Method: Each ARE tested was prepared in DMSO. […] Ethanol concentrations in media never exceeded 0.1%.
# To assess levels of AR, an ELISA was performed.
# human keratinocytes = assay: Keratinocyte cell viability / cytotoxicity in Example 12; assay type: cell-based; conditions: extended treatment
# androgen receptor (AR) [2] = biological target: T1, androgen receptor (AR); assay: Keratinocyte AR Reporter Gene Assay with washout (sustained effects); assay type: cell-based; conditions: 7.0 μM for 24 hours
# Method: Reporter gene activity was measured following two days or three days of additional cell culture in the absence of AR antagonists. AR reporter gene activity reduction was calculated as follows: 1−(average signal (treatment group)/(average signal (treatment group, without drug, same washout period).
# [3] = Human Skin Penetration Assays (Franz-cell, HTS station); assay type: in vitro ADME; conditions: 8 hours of exposure
# Method: To examine the penetration ability of SPG-003 formulation, two different assays were conducted. The SPG-003 formulation was prepared by adding SPG-003 (final concentration 1.0% by weight) to a mixture comprising 30% denatured alcohol. 49% IPM, 20% Transcutol and sonicaing this mixture until the compound was dissolved.
# Human cadaver skin tissue was purchased from a tissue bank in the U.S. Two lots of the dermatomed skin tissue were used. Donor demographics: tissue 08033 (average thickness: 397 μm): […], […], […], and anatomical site=abdomen; tissue 08696 (average thickness; 1,040 μm): […], […], […], and anatomical site=abdomen. The thickness was measured using a digital snap gage. Duplicate for each donor (N=2). The tissue was received in dry ice packaging. It was stored at −20° C. until use.
# After passing initial visual inspection, barrier integrity of the skin tissue was evaluated using transepidermal electrical resistance measurement (TEER measurement). […] Prior to the skin absorption and penetration study, electrical resistance value for each lot of human skin tissue was evaluated. […] Transepidermal electrical resistance value (TEER measurement, Z value) was measured. […] It was determined that the threshold TEER value was 6.0 KOhms for donor 08033 and 10 KOhms for donor 08696. […]
# The data collection time point was 8 hours. […] The extracts were collected and ready for analysis. […]
smiles,measurement,setting,value
CC12CCC(=O)C=C1C[C@@H](SC(=O)CC13CC4CC(CC(C4)C1)C3)C1C2CCC2(C)C1CC[C@@]21CCC(=O)O1 (stereo partly drawn) [SPG-003],inhibition at 0.1 µM,androgen receptor (AR) [1],6%
same,inhibition at 1 µM,androgen receptor (AR) [1],19%
same,inhibition at 3 µM,androgen receptor (AR) [1],26%
same,inhibition at 10 µM,androgen receptor (AR) [1],65%
same,cell cytotoxicity (in words),human keratinocytes,minimal
same,AR reporter gene activity reduction,androgen receptor (AR) [2]; Washout Period 0 days,89 ± 1.0%
same,AR reporter gene activity reduction,androgen receptor (AR) [2]; Washout Period 2 days,64 ± 0.3%
same,skin penetration (in words),[3],limited amount
same,skin retention in epidermis and dermis (in words),[3],good amount
